Values quoted from earlier work as cited in patent publication US9072714B2, “Fatty acids for use as a medicament” (Lipid Pharmaceuticals ehf., priority 2008, dated 2015).

Settings: laxative, by class and site of action

| Compound | Onset of action [h] |
| --- | --- |
| O=C1OC(c2ccc(O)cc2)(c2ccc(O)cc2)c2ccccc21 [Phenolphthalein] | 6 to 8 |
| CCCCC(CC)COC(=O)CC(C(=O)OCC(CC)CCCC)S(=O)(=O)O (centres unmarked) [Docusate] | 12 to 72 |
